Results on 3 compounds are retold here after US10328012B2, “Methods for treating skin” (AVON PRODUCTS, INC., priority 2015, dated 2019).

The subject of assay [1] is human dermal fibroblast (HDF) cells. The assay can be described thus: HA in human dermal fibroblasts, daily vs pulsed treatment (Example 17). It counts as cell-based. Particulars: 12 days; pulsed uses half as much active. Here is the method: A series of experiments was conducted to assess the effects of different treatment regimens of active ingredients shown in Table 9 on the production of hyaluronic acid (HA) in human dermal fibroblast (HDF) cells. Two different treatment regimens were assessed: (1) active ingredient A applied to cells for 12 consecutive days; and (2) active ingredient applied to cells for 2 consecutive days followed by application of media not containing active ingredient for two consecutive days repeatedly until treatment is applied for 12 consecutive days. […] After reaching about 75% confluence, cells were transferred into DMEM media without FBS, and incubated for 4-6 hours. Different wells were assigned to one of treatment regimens (1)-(2) as described above, with six wells allocated to each treatment regimen. All active ingredients were prepared as emulsions and applied directly to the HDF cells. The specific active ingredients used in each of the two treatment regimens are provided below in Table 10. Following treatment, cells were collected and the amount of hyaluronic acid (HA) secreted from the cells was measured using a commercially available HA assay (available from […] Inc., CO).

In assay [2] the test system is Human dermal fibroblast cells. The assay can be described thus: Pro-collagen I secreted by human dermal fibroblasts, HTRF human pro-collagen I kit (Example 1). It counts as cell-based. The settings on record: 0.0001% phytol alone or 1 μM retinol alone for 16 days; decline after day 13 despite continuing treatment. Here is the method: Human dermal fibroblast cells were grown in a 6-well plate in DMEM media (available from CORNING, N.Y.) supplemented with 10% Fetal Bovine Serum (FBS) and L-glutamine (1.5×10^5 cells/plate) overnight. After reaching about 75% confluence, cells were transferred into DMEM media without FBS and incubated for 4-6 hours. Next, the cells were treated with either 0.0001% phytol or 1 μM retinol. Treatment with either phytol alone, or retinol alone was performed in DMEM media without FBS for 16 days. For sequential treatments, the cells were treated with 0.0001% phytol for 6 days followed by 1 μM retinol for 10 days, or with 1 μM retinol for 6 days, followed by 0.0001% phytol for 10 days. Every other day, media were collected and cells were re-treated with phytol or retinol in the same fashion. After treatment, the amount of collagen secreted into the culture media was determined using the HTRF human pro-collagen I kit (available from CISBIO, Inc).
In general terms: TR-FRET usually uses a lanthanide donor and a delayed reading to cut background.

“Also recorded” adds a separate entry of the source.

On to `O=C(O)CO` [Glycolic Acid], for which, in assay [1], the “production of hyaluronic acid, pulsed treatment compared with daily treatment” value is “only slightly less effective”.
Regarding `C/C(=C\CO)CCC[C@H](C)CCC[C@H](C)CCCC(C)C` [Phytol], in assay [1], the “production of hyaluronic acid, pulsed treatment compared with daily treatment” value was “significantly more production of hyaluronic acid”. Further, the “pro-collagen I production as a function of treatment time” value in assay [2] was “declines; also recorded: plateau in effectiveness over time”.
Taken in the same sequence, the figures for `CC1=C(/C=C/C(C)=C/C=C/C(C)=C/CO)C(C)(C)CCC1` [Retinol, reference compound] were “significantly more production of hyaluronic acid” and “declines; also recorded: plateau in effectiveness over time”.
